In publication PMC8865417, “Receptor Interaction Profiles of 4-Alkoxy-3,5-Dimethoxy-Phenethylamines (Mescaline Derivatives) and Related Amphetamines” (Frontiers in Pharmacology, 2022):

Tests used:
[1] = biological target: human 5-HT2B receptor (Homo sapiens, UniProt P41595); conditions: for Emax: HEK293, read-out: h5-HT2B Activation efficacy max ± SD, relative to 5-HT = 100%; for EC50: h5-HT2B Activation potency EC50 ± SD, HEK 293 cells, calcium FLIPR, mean ± SD
[2] = biological target: T1, hα1A adrenergic receptor (Homo sapiens, UniProt P35348); assay: Radioligand binding at hα1A adrenergic receptor ([3H]prazosin); conditions: mean ± SD
T1 construct: expressed in transfected cells; host or cells: Chinese hamster ovary cells (membrane preparations)
T1 sequence (P35348 1-466): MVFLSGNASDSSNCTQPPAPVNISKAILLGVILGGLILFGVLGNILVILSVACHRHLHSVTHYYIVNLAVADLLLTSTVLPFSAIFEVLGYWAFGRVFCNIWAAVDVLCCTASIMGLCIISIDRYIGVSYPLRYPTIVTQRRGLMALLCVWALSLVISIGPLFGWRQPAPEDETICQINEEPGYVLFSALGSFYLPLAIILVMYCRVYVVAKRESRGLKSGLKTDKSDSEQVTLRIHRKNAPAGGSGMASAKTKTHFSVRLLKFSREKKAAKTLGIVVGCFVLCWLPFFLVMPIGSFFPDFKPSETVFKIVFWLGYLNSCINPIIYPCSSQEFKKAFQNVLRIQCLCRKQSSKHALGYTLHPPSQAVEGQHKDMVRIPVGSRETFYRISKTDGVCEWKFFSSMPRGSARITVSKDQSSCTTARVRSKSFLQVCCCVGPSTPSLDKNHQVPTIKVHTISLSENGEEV

[3] = biological target: T2, mouse TAAR1 (Mus musculus, UniProt Q923Y8); assay: Radioligand binding at mouse TAAR1 ([3H]RO5166017)
T2 construct: expressed in transfected cells; host or cells: HEK 293 cells (membrane preparations)

[4] = biological target: human 5-HT2A receptor (Homo sapiens, UniProt P28223); conditions: for Emax: NIH3T3, read-out: h5-HT2A Activation efficacy max ± SD, relative to 5-HT = 100%
[5] = biological target: T3, rat TAAR1 (Rattus norvegicus, UniProt Q923Y9); assay: Radioligand binding at rat TAAR1 ([3H]RO5166017)
T3 construct: expressed in transfected cells; host or cells: HEK 293 cells (membrane preparations)

[6] = biological target: T4, h5-HT1A receptor (Homo sapiens, UniProt P08908); assay: Radioligand binding at h5-HT1A receptor ([3H]8-OH-DPAT)
T4 construct: expressed in transfected cells; host or cells: HEK 293 cells (membrane preparations)
T4 sequence (P08908 1-422): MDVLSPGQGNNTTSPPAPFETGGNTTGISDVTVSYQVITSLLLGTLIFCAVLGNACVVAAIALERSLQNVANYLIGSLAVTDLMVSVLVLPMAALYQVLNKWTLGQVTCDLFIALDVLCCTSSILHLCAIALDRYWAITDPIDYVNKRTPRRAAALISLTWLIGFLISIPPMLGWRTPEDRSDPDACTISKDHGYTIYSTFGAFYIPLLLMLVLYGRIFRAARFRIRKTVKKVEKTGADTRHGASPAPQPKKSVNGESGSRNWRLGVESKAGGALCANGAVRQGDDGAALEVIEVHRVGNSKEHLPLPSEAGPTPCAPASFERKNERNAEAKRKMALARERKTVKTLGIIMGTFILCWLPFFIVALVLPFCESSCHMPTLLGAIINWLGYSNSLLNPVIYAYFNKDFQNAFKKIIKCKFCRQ

[7] = biological target: T5, h5-HT2C receptor (Homo sapiens, UniProt P28335); assay: biochemical; type: binding; conditions: for Ki: [3H]mesulergine, mean ± SD, read-out: h5-HT2C Receptor binding Ki ± SD
T5 construct: expressed in transfected cells; host or cells: HEK 293 cells (membrane preparations)
T5 sequence (P28335 33-458): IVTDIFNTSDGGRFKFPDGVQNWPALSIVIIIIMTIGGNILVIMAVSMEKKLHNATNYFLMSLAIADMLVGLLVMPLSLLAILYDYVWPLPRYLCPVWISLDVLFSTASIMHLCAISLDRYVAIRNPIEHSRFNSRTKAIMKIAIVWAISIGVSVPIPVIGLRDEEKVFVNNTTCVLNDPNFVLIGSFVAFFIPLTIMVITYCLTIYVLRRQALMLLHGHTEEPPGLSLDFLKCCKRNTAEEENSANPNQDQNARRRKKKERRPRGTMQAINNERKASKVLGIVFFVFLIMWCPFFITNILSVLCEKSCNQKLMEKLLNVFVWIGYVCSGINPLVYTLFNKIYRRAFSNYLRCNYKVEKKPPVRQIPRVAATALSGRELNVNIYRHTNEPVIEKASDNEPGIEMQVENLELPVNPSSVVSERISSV

[8] = biological target: T6, hDAT (Homo sapiens, UniProt Q01959); assay: Radioligand binding at hDAT ([3H]WIN35,428)
T6 construct: expressed in transfected cells; host or cells: HEK 293 cells (membrane preparations)
T6 sequence (Q01959 whole entry): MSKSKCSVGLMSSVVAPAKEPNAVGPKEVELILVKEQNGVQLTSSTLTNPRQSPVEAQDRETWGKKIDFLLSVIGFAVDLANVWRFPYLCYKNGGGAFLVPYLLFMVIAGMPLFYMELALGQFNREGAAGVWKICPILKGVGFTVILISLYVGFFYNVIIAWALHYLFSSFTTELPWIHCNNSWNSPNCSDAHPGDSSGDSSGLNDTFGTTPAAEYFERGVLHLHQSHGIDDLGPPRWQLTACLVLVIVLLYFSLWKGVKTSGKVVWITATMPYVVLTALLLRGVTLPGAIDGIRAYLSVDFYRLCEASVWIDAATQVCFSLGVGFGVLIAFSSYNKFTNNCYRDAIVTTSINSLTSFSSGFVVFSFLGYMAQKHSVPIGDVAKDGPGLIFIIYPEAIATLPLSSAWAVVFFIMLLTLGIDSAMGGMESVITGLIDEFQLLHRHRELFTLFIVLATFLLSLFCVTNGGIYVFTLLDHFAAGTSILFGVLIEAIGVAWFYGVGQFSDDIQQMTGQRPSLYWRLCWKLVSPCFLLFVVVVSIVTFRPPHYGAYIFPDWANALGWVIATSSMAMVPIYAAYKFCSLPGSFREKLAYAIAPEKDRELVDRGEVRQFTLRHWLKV

Chain of human 5-HT2A receptor (P28223 whole entry): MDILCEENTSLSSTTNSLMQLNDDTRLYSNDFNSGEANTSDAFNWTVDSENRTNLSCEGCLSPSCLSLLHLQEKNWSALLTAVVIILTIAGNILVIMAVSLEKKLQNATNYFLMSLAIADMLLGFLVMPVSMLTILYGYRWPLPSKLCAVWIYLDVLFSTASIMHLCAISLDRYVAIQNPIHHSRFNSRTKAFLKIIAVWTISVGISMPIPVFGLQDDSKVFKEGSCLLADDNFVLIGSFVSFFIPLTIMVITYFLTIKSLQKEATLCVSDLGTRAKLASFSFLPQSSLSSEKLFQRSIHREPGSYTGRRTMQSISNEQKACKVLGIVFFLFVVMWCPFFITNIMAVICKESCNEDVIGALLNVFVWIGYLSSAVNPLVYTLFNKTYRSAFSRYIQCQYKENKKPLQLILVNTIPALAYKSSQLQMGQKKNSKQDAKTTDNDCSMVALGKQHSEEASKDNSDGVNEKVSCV
T3 sequence (Q923Y9 whole entry): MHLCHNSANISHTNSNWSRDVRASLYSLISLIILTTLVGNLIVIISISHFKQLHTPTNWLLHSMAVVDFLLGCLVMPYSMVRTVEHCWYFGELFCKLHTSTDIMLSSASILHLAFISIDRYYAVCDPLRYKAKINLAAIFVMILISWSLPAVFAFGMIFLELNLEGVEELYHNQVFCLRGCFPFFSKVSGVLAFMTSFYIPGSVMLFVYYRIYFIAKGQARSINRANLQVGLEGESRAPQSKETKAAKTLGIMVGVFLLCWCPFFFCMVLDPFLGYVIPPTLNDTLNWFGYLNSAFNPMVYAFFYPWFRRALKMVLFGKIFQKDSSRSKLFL
Chain of human 5-HT2B receptor (P41595 whole entry): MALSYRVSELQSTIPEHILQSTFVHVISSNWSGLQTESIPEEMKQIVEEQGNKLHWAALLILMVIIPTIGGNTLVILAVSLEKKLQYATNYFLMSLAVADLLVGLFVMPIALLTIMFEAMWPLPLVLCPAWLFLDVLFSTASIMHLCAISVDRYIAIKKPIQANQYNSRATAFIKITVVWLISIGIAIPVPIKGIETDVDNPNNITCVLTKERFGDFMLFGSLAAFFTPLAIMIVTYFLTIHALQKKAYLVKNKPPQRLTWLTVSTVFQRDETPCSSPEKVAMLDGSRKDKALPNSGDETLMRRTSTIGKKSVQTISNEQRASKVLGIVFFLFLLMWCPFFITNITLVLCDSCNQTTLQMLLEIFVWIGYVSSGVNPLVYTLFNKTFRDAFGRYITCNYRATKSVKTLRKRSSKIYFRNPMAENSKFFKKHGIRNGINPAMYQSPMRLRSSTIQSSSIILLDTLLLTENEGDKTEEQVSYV
T2 sequence (Q923Y8 whole entry): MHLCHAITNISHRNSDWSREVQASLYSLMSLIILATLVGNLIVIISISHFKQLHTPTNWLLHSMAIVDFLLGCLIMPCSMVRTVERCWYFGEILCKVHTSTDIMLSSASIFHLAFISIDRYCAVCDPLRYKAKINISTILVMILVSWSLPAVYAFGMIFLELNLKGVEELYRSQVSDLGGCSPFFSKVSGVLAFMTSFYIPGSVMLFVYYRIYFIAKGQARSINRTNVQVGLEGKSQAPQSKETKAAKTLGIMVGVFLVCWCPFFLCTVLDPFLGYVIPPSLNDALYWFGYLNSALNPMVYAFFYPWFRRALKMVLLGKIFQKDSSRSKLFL

| SMILES | Emax [1] [%] | EC50 [1] [µM] | Ki [2] [µM] | Ki [3] [µM] | EC50 [4] [µM] | Emax [4] [%] | Ki [5] [µM] | Ki [6] [µM] | Ki [7] [µM] | Ki [8] [µM] | Higher affinity at the 5-HT2C receptor than mescaline (5) [7] |
| --- | --- | --- | --- | --- | --- | --- | --- | --- | --- | --- | --- |
| COc1cc(CCN)cc(OC)c1OCC(F)(F)F [compound 18, 3,5-dimethoxy-4-(2,2,2-trifluoroethoxy)phenethylamine] | 29 ± 14 | 0.21 ± 0.13 | > 8.7 | > 4.2 | 0.96 ± 0.05 | 44 to 78 | 1.2 | > 5.6 | 1.2 | > 8.5 |  |
| COc1cc(CCN)cc(OC)c1OCCC(F)(F)F [compound 26, 3,5-dimethoxy-4-(3,3,3-trifluoropropoxy)phenethylamine] |  | > 10 | > 8.7 | > 4.2 | 4.9 |  | 0.91 ± 0.09 | > 5.6 | 5.3 | > 8.5 |  |
| C=C(C)COc1c(OC)cc(CCN)cc1OC [compound 32, 3,5-dimethoxy-4-methallyloxyphenethylamine] |  | > 10 | > 8.7 | 3.9 | 0.079 ± 0.012 | 85 to 94 | 1 | 5.1 | 0.52 ± 0.15 | > 8.5 | 19- to 34 fold |
| CCCOc1c(OC)cc(CC(C)N)cc1OC (stereo not drawn) [compound 28, 3,5-dimethoxy-4-propyloxyamphetamine] |  | > 10 | > 8.7 | 1.8 | 0.16 ± 0.02 | 86 to 102 | 3.4 | > 5.6 | 2 | > 8.5 |  |
| COc1cc(CCN)cc(OC)c1OCCCF [compound 25, 3,5-dimethoxy-4-(3-fluoropropoxy)-phenethylamine] |  | > 10 | > 8.7 | > 4.2 | 4.5 | 85 to 94 | 1.7 | > 5.6 | 5.3 | > 8.5 |  |
| COc1cc(CCN)cc(OC)c1OCc1ccccc1 [compound 33, 4-benzyloxy-3,5-dimethoxyphenethylamine] |  | > 10 | > 8.7 | 2.4 | 0.027 ± 0.008 |  | 0.11 ± 0.01 | 4.4 | 0.44 ± 0.12 | > 8.5 | 19- to 34 fold |
| COc1cc(CCN)cc(OC)c1OC(F)(F)F [compound 13, 4-trifluoromethoxy-3,5-dimethoxyphenethylamine] | 45 ± 6 | 0.088 ± 0.02 | 3.2 | 1.9 | 0.28 ± 0.12 |  | 0.17 ± 0.01 | 2.2 | 0.29 ± 0.1 | > 8.5 | 19- to 34 fold |
| COc1cc(CC(C)N)cc(OC)c1OC(F)F (stereo not drawn) [compound 14, 4-difluoromethoxy-3,5-dimethoxyamphetamine] | 18 to 29 | 0.15 ± 0.1 | > 8.7 | 1 | 0.076 ± 0.04 |  | 0.38 ± 0.02 | > 5.6 | 3.7 | > 8.5 |  |
| COc1cc(CCN)cc(OC)c1OC1CC1 [compound 29, 4-cyclopropyloxy-3,5-dimethoxyphenethylamine] |  | > 10 | > 8.7 | > 4.2 | 2.6 | 85 to 94 | 1.2 | 4 | 5.6 | > 8.5 |  |
| COc1cc(CCN)cc(OC)c1OC(CF)CF [compound 23, 3,5-dimethoxy-4-(1,3-difluoroprop-2-yloxy)phenethylamine] |  | > 10 | > 8.7 | > 4.2 |  |  | > 4.7 | > 5.6 | > 10 | > 8.5 |  |
